Experimental data published in article PMC10778198, “First-in-Human Dose-Escalation Study of the Novel Oral Depsipeptide Class I-Targeting HDAC Inhibitor Bocodepsin (OKI-179) in Patients with Advanced Solid Tumors” (Cancers, 2023).
Several values for one entry are separate records, joined by “and”; a condition that tells them apart may be missing. Identical values can stand only once. Like-named read-outs stand apart in the source and are kept apart here.

What was measured:
[1] = plasma pharmacokinetics by LC-MS/MS in patients; assay type: in vivo, human; details: human, plasma, oral, 300 mg, plasma; for AUC(0-t): read-out: AUClast of OKI-179; for Cmax: read-out: Cmax of OKI-179; for Tmax: read-out: Tmax of OKI-179
Procedure: Blood samples were collected immediately prior to the first dose on cycle 1 and day 1, and then at 0.25, 0.5, 1, 2, 4, 8, and 24 h after taking OKI-179 on days 1 and 15. Additional samples were collected pre-dose and 2 and 4 h after OKI-179 administration on day 18 in later cohorts. Blood samples were stabilized with sodium fluoride and formic acid immediately after collection to arrest the additional conversion of the prodrug OKI-179 to OKI-006. Plasma was further stabilized using ascorbic acid prior to low-temperature storage.
Plasma concentrations of OKI-179 and OKI-006 were analyzed using validated liquid chromatography-mass spectrometry (LC-MS/MS) (Quintara Discovery Inc., Hayward, CA, USA). OKI-006 contains a free thiol moiety that can reversibly react with endogenous molecules in the blood and tissue, resulting in “bound” OKI-006. The unreacted OKI-006 is considered “free”. As bound OKI-006 can reversibly convert to free OKI-006 in vivo, both the free and “total” (free plus bound) concentrations of OKI-006 are considered pharmacologically relevant and were therefore quantified as part of this study. Bioanalytically, the total OKI-006 was measured by chemically converting all bound OKI-006 to free OKI-006 prior to analysis using the free OKI-006 bioanalytical method.
The AUClast was calculated from time zero to the time of the last quantifiable concentration for OKI-179, free OKI-006, and total OKI-006.

[2] = test system: histone acetylation (Ac-H3K27) in circulating T cells; experiment: histone acetylation in circulating T cells (PBMC flow cytometry); assay type: in vivo, human
Procedure: Blood samples for acetylated (Ac)-H3K27, Ac-H3K9, and Ac-lysine levels in peripheral blood mononuclear cells (PBMCs) were collected in cycle 1. Samples were collected immediately prior to dosing and at 2, 8, and 24 h post-dosing on days 1 and 15. Blood samples were processed within 3 h of collection, and isolated PBMCs were washed and resuspended in cell cell-freezing medium. Cells were stored at ≤−70 °C prior to shipment to the University of Texas at Austin Dell Medical School (UTDMS) for analysis. Briefly, patient PBMCs were thawed at 37 °C for 5 min, washed with flow wash buffer containing PBS/2% FBS/5 mM EDTA, and stained for 30 min on ice with the following: fixable viability dye (BioLegend 423106; Zombie NIR^TM, San Diego, CA, USA), CD3 (Biolegend; Clone OKT3), CD4 (BioLegend; Clone SK3), and CD8 (Biolegend; Clone RPA-T8). All samples were washed twice before being fixed and permeabilized using a BD Biosciences (Hunt Valley, MD, USA) Cytofix/Cytoperm™ kit (RRID: AB_2869008) according to the manufacturer’s protocol and stained for 30 min for intracellular acetylation markers: Ac-H3K27 (Cell Signaling Technology; Clone D5E4), Ac-H3K9 (Cell Signaling Technology, Danvers, MA, USA; Clone CFB11), and total Ac-lysine (BioLegend; Clone 15G10). All cells were analyzed on a Cytek Aurora (5 L 16UV-16V-14B-10YG-8R). Spectral unmixing was performed based on fluorophore-specific single-color cells and compensation bead (ThermoFisher 01-2222-41, Waltham, MA, USA) controls using SpectroFlo© software (v3). All post-acquisition analyses were performed using FlowJo software (v10.3). Results are shown as fold-changes from pre-dose values for each patient and day.
Descriptive statistics were used for baseline characteristics, safety assessments, pharmacokinetic variables, exploratory assessments, and efficacy analysis, including the duration of response and time to progression. Tables were used to summarize the data across the cohort of patients and various dosing groups. Geometric means were used to calculate plasma concentration-time profiles. […]

advanced solid tumors = experiment: antitumor activity by RECIST 1.1; assay type: in vivo, human
Source text: Patients were continuously evaluated for adverse events throughout the study using the Common Terminology Criteria of Adverse Events (CTCAE v. 5). The patients underwent a clinical history and physical examination, an ECOG PS, a complete blood count (CBCs), chemistry, coagulation studies, urinalysis, a serum pregnancy test (as applicable), a triplicate ECG, an ophthalmology examination, and baseline tumor assessment at screening. During cycle 1, weekly history and physical examination, CBC, chemistry, coagulation parameters, urinalysis, and triplicate ECGs were performed; in subsequent cycles, weekly labs were limited to a CBC. Repeat ophthalmology examinations were performed at cycle 3, day 1, and at the end of treatment. Repeat tumor assessment was performed every 2 cycles (6 weeks) in accordance with RECIST 1.1. Descriptive statistics were used for baseline characteristics, safety assessments, pharmacokinetic variables, exploratory assessments, and efficacy analysis, including the duration of response and time to progression. Tables were used to summarize the data across the cohort of patients and various dosing groups. Geometric means were used to calculate plasma concentration-time profiles. Fold changes from baseline were used to calculate acetylation.

[3] = test system: murine (syngeneic) and human cancer cell line xenograft models; set-up: method as in PMID 34965958, PMID 31235619; details: single agent; colorectal cancer, triple-negative breast cancer, diffuse large B-cell lymphoma models; cited from earlier work
[4] = test system: metastatic NRAS-mutated melanoma; set-up: method as in earlier work; details: combination with binimetinib, phase 2 data, previously treated with immunotherapy; cited from earlier work
[5] = 300-mg 5:2, Cycle 1 Day 15, geometric mean

Work on `CC(C)[C@H](N)C(=O)SCC/C=C/[C@@H]1CC(=O)NCc2nc(cs2)C(=O)NC(C)(C)C(=O)N[C@@H](C(C)C)C(=O)O1` [OKI-179, Bocodepsin] yielded an AUC(0-t) ([1]; 300 mg 5:2 cohort, mean single-dose) of 253 ng·h/mL, a Cmax ([1]; 300-mg 5:2, Cycle 1 Day 1, geometric mean, N=6) of 142 ng/mL and an AUC(0-t) ([1]; 300-mg 5:2, Cycle 1 Day 1, geometric mean) of 253 ng·h/mL. The Tmax ([1]; 300-mg 5:2, Cycle 1 Day 1, median) was 0.875 h, the half-life ([1]; 300-mg 5:2, Cycle 1 Day 1, median, read-out: t1/2 of OKI-179 (converted)) was 1.75 h and the AUC(0-t) [1, 5] was 374 ng·h/mL. It also gave a Cmax [1, 5] of 215 ng/mL, a Tmax ([1]; 300-mg 5:2, Cycle 1 Day 15, median) of 0.934 h and a half-life ([1]; 300-mg 5:2, Cycle 1 Day 15, median, read-out: t1/2 of OKI-179 (converted)) of 1.74 h. For the same compound, the half-life ([1]; day 15, 300 mg 5:2, read-out: terminal half-life (t1/2) of OKI-179 (converted)) was ~1.7 h, the “increase in histone acetylation” value ([2]; 300 mg doses, 2 h after dosing, days 1 and 15, T cells) was 6 fold and the “increase in H3K27 acetylation in CD4 T cells” value ([2]; doses >200 mg) was “greater than 6 fold”. The “increase in H3K27 acetylation in circulating T cells” value ([2]; doses of 200 mg or greater) was > 6 fold, the “partial or complete response” value (advanced solid tumors; RECIST 1.1) was “No partial or complete response” and the “stable disease as the best response” value (advanced solid tumors; heavily pretreated patient population) was 39%. The “patients with stable disease for > 5 months” value (advanced solid tumors; in vivo) was “Six”, the “time in the study with stable disease” value (advanced solid tumors; two patients with platinum-resistant serous ovarian cancer, one value each) was 7.5 months and 14.7 months and the antitumor activity [3] was “significant antitumor activity”. The “overall response rate (ORR)” value [4] was 38%.
